Earlier results in US6387915B2, “Isoxazole-sulfonamide endothelin antagonists” (Pfizer Inc., priority 2000, dated 2002).

Columns and labels:
[1] = in man; Hypertension (1999) 33, 581-585
neointimal formation = conditions: S. Douglas et al., Circ. Res, 75, 1994
[2] = hypertensive patients; H. Krum et al., New Eng. J. Med. (1998) 338, 784-790

CCCC[C@@H](NC(=O)[C@@H](Cc1cn(C(=O)OC)c2ccccc12)NC(=O)[C@H](CC(C)(C)C)NC(=O)N1[C@H](C)CCC[C@@H]1C)C(=O)O [BQ-788]
effect on peripheral resistance [1]: increase peripheral resistance

CCCOc1ccc2c(c1)[C@@H](c1ccc(OC)cc1OCC(=O)O)[C@H](C(=O)O)[C@H]2c1ccc2c(c1)OCO2 [SB-209670]
reduction in neointimal formation relative to control animals (neointimal formation): 50%

COc1ccccc1Oc1c(NS(=O)(=O)c2ccc(C(C)(C)C)cc2)nc(-c2ncccn2)nc1OCCO [Bosentan]
effect on blood pressure [2]: decreased blood pressure
